Results from patent publication US20180298024A1, “CORTISTATIN ANALOGS AND USES THEREOF” (President and Fellows of Harvard College, priority 2015, published 2018).

Columns and labels:
K562 = test: Half-maximal growth inhibition (GI50), K562; assay type: cell-based; conditions: Homo sapiens, 240 h, CML, BCR-Abl, read-out: GI50 (nM), day 10
Description: (§1) Compounds A, B, C, D, and F were tested against various cell lines to probe their broad utility against cancer. Cortistatin A (CA) was also tested against the cell lines in a head to head fashion.

Adenosine Transporter = target: T1, Adenosine Transporter (Cavia porcellus, UniProt H0V4R7); test: Panlab assay, Adenosine Transporter; assay type: binding
T1 sequence (H0V4R7 1-461): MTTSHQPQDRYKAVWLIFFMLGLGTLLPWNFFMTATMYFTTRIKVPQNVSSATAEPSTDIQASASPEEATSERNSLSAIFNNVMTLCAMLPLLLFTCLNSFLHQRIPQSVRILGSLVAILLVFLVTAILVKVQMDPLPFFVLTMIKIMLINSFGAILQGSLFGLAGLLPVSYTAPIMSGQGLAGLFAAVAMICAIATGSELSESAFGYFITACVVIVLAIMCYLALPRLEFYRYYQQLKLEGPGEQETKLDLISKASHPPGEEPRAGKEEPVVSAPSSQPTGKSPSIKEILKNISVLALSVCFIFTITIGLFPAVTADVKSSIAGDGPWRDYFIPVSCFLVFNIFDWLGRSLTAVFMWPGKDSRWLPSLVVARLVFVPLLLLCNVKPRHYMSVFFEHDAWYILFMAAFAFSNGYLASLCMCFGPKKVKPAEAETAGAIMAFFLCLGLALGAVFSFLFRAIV
Description: Compounds A, B, C, and D were tested in Panlab assays to evaluate potential off-target activity using standard assay kits. Methods employed in these studies have been adapted from the scientific literature to maximize reliability and reproducibility. Reference standards were run as an integral part of each assay to ensure the validity of the results obtained.
IC50 values were determined by a non-linear, least squares regression analysis using MathIQ™ (ID Business Solutions Ltd., UK). Where inhibition constants (Ki) are presented, the Ki values were calculated using the equation of Cheng and Prusoff (Cheng, Y., Prusoff, W. H., Biochem. Pharmacol. 22:3099-3108, 1973) using the observed IC50 of the tested compound, the concentration of radioligand employed in the assay, and the historical values for the KD of the ligand (obtained experimentally at Eurofins Panlabs, Inc.). Where presented, the Hill coefficient (nH), defining the slope of the competitive binding curve, was calculated using MathIQ™.

Dopamine Transporter = target: T2, Dopamine Transporter (Homo sapiens, UniProt Q01959); test: Panlab assay, Dopamine Transporter; assay type: binding
T2 construct: Eurofins Panlabs
T2 sequence (Q01959 whole entry): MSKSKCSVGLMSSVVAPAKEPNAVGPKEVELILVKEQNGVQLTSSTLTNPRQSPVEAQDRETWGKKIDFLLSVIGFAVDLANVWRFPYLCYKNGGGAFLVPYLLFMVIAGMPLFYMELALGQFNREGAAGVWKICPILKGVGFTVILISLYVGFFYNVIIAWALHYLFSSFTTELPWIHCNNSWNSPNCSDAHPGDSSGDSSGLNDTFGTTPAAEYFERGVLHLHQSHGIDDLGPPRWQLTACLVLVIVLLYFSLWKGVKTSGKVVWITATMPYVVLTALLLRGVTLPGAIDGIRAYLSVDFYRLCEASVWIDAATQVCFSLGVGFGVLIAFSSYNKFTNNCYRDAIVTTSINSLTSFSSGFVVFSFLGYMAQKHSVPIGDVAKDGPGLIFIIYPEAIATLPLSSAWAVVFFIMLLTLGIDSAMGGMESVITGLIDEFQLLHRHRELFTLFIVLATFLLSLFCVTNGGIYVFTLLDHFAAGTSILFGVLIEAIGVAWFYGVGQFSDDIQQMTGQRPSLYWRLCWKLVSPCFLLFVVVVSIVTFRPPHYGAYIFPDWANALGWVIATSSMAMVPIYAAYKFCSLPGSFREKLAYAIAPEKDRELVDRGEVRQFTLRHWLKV
Description: Compounds A, B, C, and D were tested in Panlab assays to evaluate potential off-target activity using standard assay kits. Methods employed in these studies have been adapted from the scientific literature to maximize reliability and reproducibility.
IC50 values were determined by a non-linear, least squares regression analysis using MathIQ™ (ID Business Solutions Ltd., UK). […] Where presented, the Hill coefficient (nH), defining the slope of the competitive binding curve, was calculated using MathIQ™.

OCI-AML2 = test: Half-maximal growth inhibition (GI50), OCI-AML2; assay type: cell-based; conditions: Homo sapiens, 240 h, AML, M4, DNMT3A R635W, read-out: GI50 (nM), day 10
Description: as §1

SMILES | GI50 (K562) | IC50 (Adenosine Transporter) | nH (Hill coefficient), Adenosine Transporter (Adenosine Transporter) | Ki (Adenosine Transporter; Cheng and Prusoff) | IC50 (Dopamine Transporter) | nH (Hill coefficient), Dopamine Transporter (Dopamine Transporter) | Ki (Dopamine Transporter; Cheng and Prusoff) | GI50 (OCI-AML2)
C[C@]12CC=C3C=C4CC[C@@H](N5C[C@H](O)[C@@H](O)C5)C[C@]45CC[C@]3(O5)[C@@H]1CC[C@@H]2c1ccc2ccncc2c1 [Compound D] | > 1000 nM | – | – | – | – | – | – | –
C[C@]12CC=C3C=C4CC[C@@H](O)C[C@]45CC[C@]3(O5)[C@@H]1CC[C@@H]2c1ccc2ccncc2c1 [Compound A, (3S,3aR,9R,10aR,12aS,12bR)-3-(isoquinolin-7-yl)-3a-methyl-1,2,3,3a,4,7,8,9,10,11,12,12b-dodecahydro-10a,12a-epoxybenzo[4,5]cyclohepta[1,2-e]inden-9-ol] | – | 3.61 µM | 1.30 | 1.23 µM | 4.9 µM | 0.97 | 3.89 µM | 4 nM
